Our source for the viability values is ChEMBL document CHEMBL3232704, “Discovery of mixed type thymidine phosphorylase inhibitors endowed with antiangiogenic properties: synthesis, pharmacological evaluation and molecular docking study of 2-thioxo-pyrazolo[1,5-a][1,3,5]triazin-4-ones. Part II” (Eur J Med Chem, 2014).

Each structure is given as a SMILES string.

The nature of this series: Cytotoxicity against human MDA-MB-231 cells assessed as cell viability at 25 to 100 uM after 72 hrs by MTT assay relative to control. In kind it is cell-based. As to conditions: read-out: Activity.
Consider `O=c1[nH]c(=O)c2cc[nH]c2[nH]1` [7-DEAZAXANTHINE], for which the viability at 72 h, up to 100 µM was 80%. The value for `NC(=S)Nc1nn2c(=O)[nH]c(=S)[nH]c2c1Cc1ccc(-c2ccccc2)cc1` was 80%. The value for `O=c1[nH]c(=S)[nH]c2cc(-c3ccc(Cl)c(Cl)c3)nn12` was 80%; that for `NC(=S)Nc1nn2c(=O)[nH]c(=S)[nH]c2c1Cc1ccc(C(F)(F)F)cc1` was 80%; that for `NC(=S)Nc1nn2c(=O)[nH]c(=S)[nH]c2c1Cc1ccc(Oc2ccccc2)cc1` was 80%.

Turning to `NC(=S)Nc1nn2c(=O)[nH]c(=S)[nH]c2c1Cc1cccc2ccccc12`, the viability at 72 h, up to 100 µM is 80%.
